Usually Km stands for the concentration of substrate that gives half-maximal velocity.

Structures are written as SMILES.

The results in this text go back to publication PMC3367910 (PLoS ONE, 2012).

The test concerns T1, chlorpyrifos hydrolase (CPH).
T1 construct: native enzyme purified from mycelial cell extract; N-terminal MEPDGELSALTQGANS; gene not cloned
The format is biochemical, Cladosporium cladosporioides.
In the case of `CCOP(=S)(OCC)Oc1nc(Cl)c(Cl)cc1Cl` [Chlorpyrifos, O, O-diethyl O-(3,5,6-trichloro-2-pyridyl) phosphorothioate], the Km turned out to be 6.8 ± 0.4 µM. For `COP(N)(=O)SC` (centres unmarked) [Methamidophos], the Km was 31.8 ± 1.7 µM. The same measure for `COP(=S)(OC)Oc1ccc([N+](=O)[O-])cc1` [Methyl parathion]: 12.5 ± 1.4 µM; for `CCOC(=O)CC(SP(=S)(OC)OC)C(=O)OCC` (centres unmarked) [Malathion]: 44.4 ± 2.1 µM; for `CCOP(=S)(OCC)Oc1ccc([N+](=O)[O-])cc1` [Parathion]: 9.8 ± 0.3 µM.
